# According to US20250051263A1, “NOVEL IONIZABLE LIPIDS AND LIPID NANOPARTICLES AND METHODS OF USING THE SAME” (Sail Biomedicines, Inc., priority 2021, published 2025):
# How the values were obtained:
# Balb/c mice [1] = assay: EPO levels in plasma by EPO MSD kit after IV injection of EPO mRNA LNP; format: in vivo
# [2] = mRNA encapsulation efficiency, Quant-iT RiboGreen RNA Assay; format: physicochemical; settings: LNP ionizable lipid:DSPC:Plant Chol.:DMPE-PEG2k 50:10:38.5:1.5
# Balb/c mice [3] = assay: In-vivo bioluminescent imaging after IV injection of Fluc mRNA LNP; settings: for Bioluminescence (IV) Liver / Bioluminescence (IV) Lung / Bioluminescence (IV) Spleen / Bioluminescence (IV) Whole Body / Spleen: Liver Ratio: Example 5 LNP (DOPE 35:16:46.5:2.5), 5 μg FLUC + 5 μg EPO; for Bioluminescence (IV) Liver / Bioluminescence (IV) Lung / Bioluminescence (IV) Spleen / Bioluminescence (IV) Whole Body / Bioluminescence Liver / Bioluminescence Lung / Bioluminescence Spleen: 4-6 hours post-dose; for Bioluminescence (IV) Liver / Bioluminescence (IV) Lung / Bioluminescence (IV) Spleen / Bioluminescence (IV) Whole Body / Spleen: Liver Ratio / Bioluminescence Liver / Bioluminescence Lung / Bioluminescence Spleen: IV; for Spleen: Liver Ratio: ratio of bioluminescence; for Bioluminescence Liver / Bioluminescence Lung / Bioluminescence Spleen: 5 ug Fluc+5 ug EPO mRNA; for bioluminescence in the liver, spleen, and lung: used as part of an ionizable lipid scaffold (LNP), Table 1
# [4] = Example 5 LNP (DOPE 35:16:46.5:2.5), 5 μg FLUC + 5 μg EPO
# [5] = LNP lipid:DSPC:Plant Chol.:DMPE-PEG2k 50:10:38.5:1.5, 5 ug Fluc+5 ug EPO mRNA
# [6] = LNP lipid:DOPE:Plant Chol.:DMPE-PEG2k 35:16:46.5:2.5 (Table 1)
# [7] = LNP lipid:DSPC:Plant Chol.:DMPE-PEG2k 50:10:38.5:1.5
SMILES,hEPO (Balb/c mice [1]; [4]),"hEPO (Balb/c mice [1]; LNP lipid:DOPE:Plant Chol.:DMPE-PEG2k 35:16:46.5:2.5 (Table 1), 5 ug Fluc+5 ug EPO mRNA)",hEPO (Balb/c mice [1]; [5]),% EE [2] [%],Bioluminescence (IV) Liver (Balb/c mice [3]),Bioluminescence (IV) Lung (Balb/c mice [3]),Bioluminescence (IV) Spleen (Balb/c mice [3]),Bioluminescence (IV) Whole Body (Balb/c mice [3]),Spleen: Liver Ratio (Balb/c mice [3]),Bioluminescence Liver (Balb/c mice [3]; [6]),Bioluminescence Lung (Balb/c mice [3]; [6]),Bioluminescence Spleen (Balb/c mice [3]; [6]),Bioluminescence Liver (Balb/c mice [3]; [7]),Bioluminescence Lung (Balb/c mice [3]; [7]),Bioluminescence Spleen (Balb/c mice [3]; [7]),"bioluminescence in the liver, spleen, and lung (Balb/c mice [3])"
"CCCCCCCCCCCOC(=O)CCCCCN(CCCCCCCC(=O)OC(CCCCCCCC)CCCCCCCC)CCNC(=O)/C=C/C(=O)NCCN(CCCCCCCC(=O)OC(CCCCCCCC)CCCCCCCC)CCCCCC(=O)OCCCCCCCCCCC [Compound 2252, 1-octylnonyl 8-[2-[[(E)-4-[2-[[8-(1-octylnonoxy)-8-oxo-octyl]-(6-oxo-6-undecoxy-hexyl)amino]ethylamino]-4-oxo-but-2enoyl]amino]ethyl-(6-oxo-6-undecoxy-hexyl)amino]octanoate]",5.6E+05,5.62E+05,2.03E+04,70.4,1.5E+07,3.3E+03,2.3E+05,7.2E+07,0.015,1.52E+07,3.27E+03,2.32E+05,2.41E+05,1.03E+04,4.69E+05,improved bioluminescence
"CCCCCCCCCCCOC(=O)CCCCCN(CCCCCCCC(=O)OC(CCCCCCCC)CCCCCCCC)CCOC(=O)OCCN(CCCCCCCC(=O)OC(CCCCCCCC)CCCCCCCC)CCCCCC(=O)OCCCCCCCCCCC [Compound 2218, 1-octylnonyl 8-[2-[2-[[8-(1-octylnonoxy)-8-oxo-octyl]-(6-oxo-6-undecoxy-hexyl)amino]ethoxycarbonyloxy]ethyl-(6-oxo-6-undecoxy-hexyl)amino]octanoate]",9.6E+01,–,8.40E+01,86.5,1.9E+03,7.9E+02,1.8E+03,4.1E+03,1.019,–,–,–,1.16E+03,7.20E+02,8.14E+03,improved bioluminescence
"CCCCCCCCCCCOC(=O)CCCCCN(CCCCCCCC(=O)OC(CCCCCCCC)CCCCCCCC)CCNC(=O)CC(=O)NCCN(CCCCCCCC(=O)OC(CCCCCCCC)CCCCCCCC)CCCCCC(=O)OCCCCCCCCCCC [Compound 2220, 1-octylnonyl 8-[2-[[3-[2-[[8-(1-octylnonoxy)-8-oxo-octyl]-(6-oxo-6-undecoxy-hexyl)amino]ethylamino]-3-oxo-propanoyl]amino]ethyl-(6-oxo-6-undecoxy-hexyl)amino]octanoate]",7.1E+05,–,6.99E+05,91,1.1E+07,1.8E+03,7.5E+04,4.3E+07,0.004,–,–,–,1.03E+07,7.79E+03,2.09E+06,improved bioluminescence
